Patent publication US20250059183A1, “PYRIDINE[4,3-D]PYRIMIDINE COMPOUND AS TLR7/8 AGONIST” (SHANGHAI VISONPHARMA CO., LTD., priority 2021, published 2025)

Key:
[1] = target: T1, human TLR8 (Homo sapiens, UniProt Q9NR97); experiment: HEK-Blue hTLR8 SEAP reporter gene agonist assay; assay type: cell-based; conditions: HEK-Blue hTLR8 cells, 16 to 22 hours incubation
T1 construct: host or cells: HEK-Blue hTLR8 (HEK293-derived reporter cells)
T1 sequence (Q9NR97 27-1041): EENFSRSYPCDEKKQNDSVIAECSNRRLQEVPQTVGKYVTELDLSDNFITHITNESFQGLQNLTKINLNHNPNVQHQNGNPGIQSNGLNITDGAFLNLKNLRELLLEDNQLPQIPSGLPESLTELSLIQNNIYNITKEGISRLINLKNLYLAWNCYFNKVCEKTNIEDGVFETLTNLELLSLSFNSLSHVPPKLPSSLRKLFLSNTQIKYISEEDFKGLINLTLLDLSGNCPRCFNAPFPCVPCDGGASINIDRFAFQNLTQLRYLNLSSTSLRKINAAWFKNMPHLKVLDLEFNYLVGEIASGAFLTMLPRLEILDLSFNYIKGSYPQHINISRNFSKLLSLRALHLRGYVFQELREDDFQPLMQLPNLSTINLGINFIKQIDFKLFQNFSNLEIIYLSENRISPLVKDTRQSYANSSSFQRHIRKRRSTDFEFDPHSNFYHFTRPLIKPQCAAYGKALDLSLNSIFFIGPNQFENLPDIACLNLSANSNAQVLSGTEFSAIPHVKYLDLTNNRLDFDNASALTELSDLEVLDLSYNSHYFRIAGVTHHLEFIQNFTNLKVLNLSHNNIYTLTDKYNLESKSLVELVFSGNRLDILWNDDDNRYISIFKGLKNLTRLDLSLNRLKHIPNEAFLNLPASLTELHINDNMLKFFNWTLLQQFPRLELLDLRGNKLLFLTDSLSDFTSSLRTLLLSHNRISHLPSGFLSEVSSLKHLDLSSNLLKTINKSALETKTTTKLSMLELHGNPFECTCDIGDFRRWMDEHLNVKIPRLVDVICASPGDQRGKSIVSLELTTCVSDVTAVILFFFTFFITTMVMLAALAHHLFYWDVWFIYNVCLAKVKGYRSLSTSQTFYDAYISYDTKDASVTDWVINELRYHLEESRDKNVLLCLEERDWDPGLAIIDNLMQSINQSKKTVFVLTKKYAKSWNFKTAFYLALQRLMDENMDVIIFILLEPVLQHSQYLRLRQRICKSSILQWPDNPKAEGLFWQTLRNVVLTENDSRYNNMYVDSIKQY
Procedure, shortened: (§1)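 HEK-Blue cells stably expressing human TLR7 or TLR8 carry a SEAP reporter driven by a minimal IFN-β promoter fused to 5×NF-κB and AP-1 sites. Compounds at […] final, 16 to 22 h. SEAP in the medium measured with Quanti-blue at OD650, and EC50 derived.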

[2] = target: T2, human TLR7 (Homo sapiens, UniProt Q9NYK1); experiment: HEK-Blue hTLR7 SEAP reporter gene agonist assay; assay type: cell-based; conditions: HEK-Blue hTLR7 cells, 16 to 22 hours incubation
T2 construct: host or cells: HEK-Blue hTLR7 (HEK293-derived reporter cells)
T2 sequence (Q9NYK1 27-1049): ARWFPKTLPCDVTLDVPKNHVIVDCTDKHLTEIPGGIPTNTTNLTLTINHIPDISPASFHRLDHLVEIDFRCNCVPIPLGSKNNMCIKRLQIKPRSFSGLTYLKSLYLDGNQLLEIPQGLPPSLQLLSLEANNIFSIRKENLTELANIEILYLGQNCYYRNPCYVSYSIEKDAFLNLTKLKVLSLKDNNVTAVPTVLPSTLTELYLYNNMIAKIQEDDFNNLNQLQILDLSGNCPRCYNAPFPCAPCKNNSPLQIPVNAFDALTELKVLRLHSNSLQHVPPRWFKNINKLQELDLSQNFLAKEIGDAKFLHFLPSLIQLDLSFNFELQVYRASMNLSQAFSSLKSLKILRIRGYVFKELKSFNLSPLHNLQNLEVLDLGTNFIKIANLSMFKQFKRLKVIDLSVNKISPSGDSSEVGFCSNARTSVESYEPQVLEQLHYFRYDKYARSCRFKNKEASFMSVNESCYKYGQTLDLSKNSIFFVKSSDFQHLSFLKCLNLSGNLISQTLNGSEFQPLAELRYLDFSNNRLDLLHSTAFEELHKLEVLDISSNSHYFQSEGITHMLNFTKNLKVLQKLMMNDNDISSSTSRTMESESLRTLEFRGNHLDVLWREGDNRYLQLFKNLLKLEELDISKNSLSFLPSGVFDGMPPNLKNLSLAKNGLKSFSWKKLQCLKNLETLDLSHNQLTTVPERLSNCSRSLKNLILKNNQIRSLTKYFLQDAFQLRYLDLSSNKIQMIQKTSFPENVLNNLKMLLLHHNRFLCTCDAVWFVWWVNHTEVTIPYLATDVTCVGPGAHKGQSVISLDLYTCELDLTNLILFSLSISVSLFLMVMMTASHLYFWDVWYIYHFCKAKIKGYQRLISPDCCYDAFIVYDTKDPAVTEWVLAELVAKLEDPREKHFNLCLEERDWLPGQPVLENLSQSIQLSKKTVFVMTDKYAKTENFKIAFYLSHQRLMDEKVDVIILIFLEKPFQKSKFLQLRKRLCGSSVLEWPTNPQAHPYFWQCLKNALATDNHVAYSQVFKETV
Procedure, shortened: as §1

Structure (SMILES) | EC50 [1] [µM] | EC50 [2] [µM]
CCC[C@@H](CO)Nc1nc(N)nc2ccn(Cc3ccc(CN4CCCC4)cc3OC)c(=O)c12 [Compound I-158, (S)-2-amino-4-((1-hydroxypentan-2-yl)amino)-6-(2-methoxy-4-(pyrrolidin-1-ylmethyl)benzyl)pyrido[4,3-d]pyrimidin-5(6H)-one] | 0.004 | 0.01
CCC[C@@H](C)Nc1nc(N)nc2ccn(Cc3ccc(CN(C)CCO)cc3OC)c(=O)c12 [Compound I-160, (R)-2-amino-6-(4-(((2-hydroxyethyl)(methyl)amino)methyl)-2-methoxybenzyl)-4-(pentan-2-ylamino)pyrido[4,3-d]pyrimidin-5(6H)-one] | 0.02 | 0.02
CCC[C@@H](C)Nc1nc(N)nc2ccn(Cc3ccc(C(=O)N4C5CNCC4C5)cc3)c(=O)c12 [Compound I-161, 6-(4-(3,6-diazabicyclo[3.1.1]heptane-6-carbonyl)benzyl)-2-amino-4-(((R)-pentan-2-yl)amino)pyrido[4,3-d]pyrimidin-5(6H)-one] | 0.04 | 0.11
CCC[C@@H](CO)Nc1nc(N)nc2ccn(Cc3ccc(CN4CCN(C)CC4)cc3OC)c(=O)c12 [Compound I-162, (S)-2-amino-4-((1-hydroxypentan-2-yl)amino)-6-(2-methoxy-4-((4-methylpiperazin-1-yl)methyl)benzyl)pyrido[4,3-d]pyrimidin-5(6H)-one] | 0.01 | 0.02
CCC[C@@H](COC)Nc1nc(N)nc2ccn(Cc3ccc(CN4CCCC4)cc3OC)c(=O)c12 [Compound I-163, (S)-2-amino-6-(2-methoxy-4-(pyrrolidin-1-ylmethyl)benzyl)-4-((1-methoxypentan-2-yl)amino)pyrido[4,3-d]pyrimidin-5(6H)-one] | 0.07 | 0.03
CCCC[C@@H](CO)Nc1nc(N)nc2ccn(Cc3ccc(CN4CCCC4)cc3OC)c(=O)c12 [Compound I-164, (S)-2-amino-4-((1-hydroxyhexan-2-yl)amino)-6-(2-methoxy-4-(pyrrolidin-1-ylmethyl)benzyl)pyrido[4,3-d]pyrimidin-5(6H)-one] | 0.03 | 0.04
CCC[C@@H](C)Nc1nc(N)nc2ccn(Cc3ccc(CN(CCC)CCO)cc3OC)c(=O)c12 [Compound I-165, (R)-2-amino-6-(4-(((2-hydroxyethyl)(propyl)amino)methyl)-2-methoxybenzyl)-4-(pentan-2-ylamino)pyrido[4,3-d]pyrimidin-5(6H)-one] | 0.06 | 0.04
CCC[C@@H](C)Nc1nc(N)nc2ccn(Cc3ccc(CN(CCO)CCO)cc3OC)c(=O)c12 [Compound I-166, (R)-2-amino-6-(4-((bis(2-hydroxyethyl)amino)methyl)-2-methoxybenzyl)-4-(pentan-2-ylamino)pyrido[4,3-d]pyrimidin-5(6H)-one] | 0.03 | 0.03
CCC[C@@H](CO)Nc1nc(N)nc2ccn(Cc3ccc(CN4CCCC4)cc3Cl)c(=O)c12 [Compound I-168, (S)-2-amino-6-(2-chloro-4-(pyrrolidin-1-ylmethyl)benzyl)-4-((1-hydroxypentan-2-yl)amino)pyrido[4,3-d]pyrimidin-5(6H)-one] | 0.01 | 0.04
CCC[C@@H](CO)Nc1nc(N)nc2ccn(Cc3ccc(CN4CCCC4)cc3C)c(=O)c12 [Compound I-169, (S)-2-amino-4-((1-hydroxypentan-2-yl)amino)-6-(2-methyl-4-(pyrrolidin-1-ylmethyl)benzyl)pyrido[4,3-d]pyrimidin-5(6H)-one] | 0.02 | 0.07
CCC[C@@H](C)Nc1nc(N)nc2ccn(Cc3ccc(CN4CCN(C)CC4)cc3OC)c(=O)c12 [Compound I-179, (R)-2-amino-6-(2-methoxy-4-((4-methylpiperazin-1-yl)methyl)benzyl)-4-(pentan-2-ylamino)pyrido[4,3-d]pyrimidin-5(6H)-one] | 0.058 | 0.091
CCC[C@@H](C)Nc1nc(N)nc2ccn(Cc3ccc(C(=O)N4CCNCC4)cc3OC)c(=O)c12 [Compound I-180, (R)-2-amino-6-(2-methoxy-4-(piperazine-1-carbonyl)benzyl)-4-(pentan-2-ylamino)pyrido[4,3-d]pyrimidin-5(6H)-one] | 0.012 | 0.038
CCC[C@@H](C)Nc1nc(N)nc2ccn(Cc3ccc(C(=O)N4CC5CC(C4)N5)cc3OC)c(=O)c12 [Compound I-181, 6-(4-(3,6-diazabicyclo[3.1.1]heptane-3-carbonyl)-2-methoxybenzyl)-2-amino-4-(((R)-pentan-2-yl)amino)pyrido[4,3-d]pyrimidin-5(6H)-one] | 0.007 | 0.03
CCC[C@@H](C)Nc1nc(N)nc2ccn(Cc3ccc(C(=O)N4CCN(C)CC4)cc3OC)c(=O)c12 [Compound I-182, (R)-2-amino-6-(2-methoxy-4-(4-methylpiperazine-1-carbonyl)benzyl)-4-(pentan-2-ylamino)pyrido[4,3-d]pyrimidin-5(6H)-one] | 0.058 | 0.054
CCC[C@@H](C)Nc1nc(N)nc2ccn(Cc3ccc(C(=O)N4CCN(C(C)C)CC4)cc3OC)c(=O)c12 [Compound I-183, (R)-2-amino-6-(4-(4-isopropylpiperazine-1-carbonyl)-2-methoxybenzyl)-4-(pentan-2-ylamino)pyrido[4,3-d]pyrimidin-5(6H)-one] | 0.083 | 0.091
CCC[C@@H](C)Nc1nc(N)nc2ccn(Cc3ccc(CN4CCNCC4)cc3OC)c(=O)c12 [Compound I-184, (R)-2-amino-6-(2-methoxy-4-(piperazin-1-ylmethyl)benzyl)-4-(pentan-2-ylamino)pyrido[4,3-d]pyrimidin-5(6H)-one] | 0.107 | 0.096
CCCCNc1nc(N)nc2cc(C)n(Cc3ccc(CN4CCCC4)cc3)c(=O)c12 [Compound I-187, 2-amino-4-(butylamino)-7-methyl-6-(4-(pyrrolidin-1-ylmethyl)benzyl)pyrido[4,3-d]pyrimidin-5(6H)-one] | 0.064 | 0.145
CCC[C@@H](CO)Nc1nc(N)nc2ccn(Cc3ccc(CN(C)C)cc3OC)c(=O)c12 [Compound I-195, (S)-2-amino-6-(4-((dimethylamino)methyl)-2-methoxybenzyl)-4-((1-hydroxypentan-2-yl)amino)pyrido[4,3-d]pyrimidin-5(6H)-one] | 0.001 | 0.031
CCC[C@@H](C)Nc1nc(N)nc2ccn(Cc3ccc(CNC)cc3OC)c(=O)c12 [Compound I-198, (R)-2-amino-6-(2-methoxy-4-((methylamino)methyl)benzyl)-4-(pentan-2-ylamino)pyrido[4,3-d]pyrimidin-5(6H)-one] | 0.005 | 0.1
